The values that follow come from patent US12714698B2, “Compositions and methods for treating or preventing dermal disorders” (Drexel University, priority 2015, dated 2026).

Experiment [1] relates to human cardiac fibroblasts. Kind of experiment: Nanostring analysis of mRNA levels. It is filed as cell-based. Particulars: rapamycin. On the procedure:
(§1) Cell culture experiments utilizing NRTIs were of the following design. Cultures of either human lung or cardiac fibroblasts were cultivated according to standard culture protocols for these cells (Cristofalo, et al., Journal of Tissue Culture Methods 1980, 6:117-121). Parallel sets of cultures were maintained in normal growth media or in normal growth media with the addition of 1 nM rapamycin. Cultures were maintained with 1 nM rapamycin (Enzo Biologicals) for two weeks before exposure to NRTIs. Cell cultures were exposed to NRTIs at indicated concentrations in individual experiments (generally 10-20 μg/ml) for 7 days, with a change of media and fresh NRTIs at day 4. Mitochondrial measurements, bioanalyzer measurements, immunoblotting for protein expression and phosphorylation status, and assays for senescence were performed at the end of this 7-day period.
Differences in mitochondria-related gene expression was examined using a nanostring approach which allows multiplex evaluation of mRNA species in the absence of amplification and provides a direct count of mRNA molecules. The mRNA levels paralleled the changes observed in protein levels as mRNA levels for all subunits increased in cells exposed to NRTIs while rapamycin decreased mRNA levels for all subunits (FIGS. 2D-2H).

Experiment [2] has as its system human cardiac fibroblasts. Kind of experiment: Senescence-associated beta-galactosidase detection. The format is cell-based. Conditions: rapamycin treated cultures (1 nM). On the procedure: as §1
Assessment of SA-β-gal activity was performed by plating cells following respective treatments at low density (0.5×10^4/cm^2) to prevent false positive staining known to occur in high density cultures. […] Following incubation, cells were washed three times with PBS and at least 500 cells were counted for each sample in triplicates. Positive cells (blue cells) were expressed as a percentage of total cells.

In experiment [3] the test system is human fibroblasts. Kind of experiment: Ethidium bromide mitochondrial stress in human fibroblasts. An excerpt:
Human fibroblasts were exposed to ethidium bromide for 7 days and cell viability measured at that time.

Experiment [4] concerns human cardiac fibroblasts. Kind of experiment: Immunoblot of senescence markers (p53, p21, p16, lamin B1, IL-6). The format is cell-based. On the procedure:
as §1
Cell culture reagents were from Cellgro, unless indicated. WI-38 fetal-lung primary human fibroblasts or human cardiac fibroblasts were grown in MEM supplemented with 10% fetal bovine serum, 1% L-glutamine, MEM vitamins, and MEM non-essential amino acids. Cells were maintained in a 37° C. in 5% CO2 incubator. For treatment studies, cells were treated with 1 nM rapamycin (Enzo Biologicals) for two weeks before treatment with NRTIs. Cells were maintained by trypsinization and reseeding at a cell density of 1×10^4/cm^2 every 7 to 10 days. Emtricitabine (FTC) and tenofovir disoproxil fumarate (TDF) were kindly provided by the NIH AIDS Research & Reference Reagent program. During the 7-day exposure to the NRTIs, the pharmacologic inhibitors PD98059 (10 μM, Santa Cruz Biotechnologies), BI-D1870, GW5074, and SB203580 (10 μM, Enzo Biologicals) were added to the culture medium either during the final 48 hours or for the final 2 hours depending upon the experiment. During the 7-day exposure to NRTIs, Trolox (500 μM) and N-acetylcysteine (100 μM, Acros Organics) were added every other day. Mito-Q (20 nM) and TPP (20 nM) were kindly provided by Dr. Brett Kaufmann at the University of Pennsylvania School of Veterinary Medicine. Vector and mt-catalase adenoviruses (MOI's 25, 50, and 75) were purchased from Gene Transfer Vector Core from the University of Iowa.
Cell protein extracts were prepared by extracting with radioimmunoprecipitation assay (RIPA) buffer containing a protease inhibitor cocktail (Sigma-Aldrich) and phosphatase inhibitors, NaF and sodium orthovanadate. Protein concentration was quantified using a bicinchoninic acid (BCA) assay (Pierce Biotechnology). […] For co-immunoprecipitation, cell protein extracts were prepared in HNTG buffer containing a protease inhibitor cocktail and quantified using BCA assay. […]
A general note: A western blot detects proteins with antibodies after separation by electrophoresis.

As to `CO[C@H]1C[C@@H]2CC[C@@H](C)[C@@](O)(O2)C(=O)C(=O)N2CCCC[C@H]2C(=O)O[C@H]([C@H](C)C[C@@H]2CC[C@@H](O)[C@H](OC)C2)CC(=O)[C@H](C)/C=C(\C)[C@@H](O)[C@@H](OC)C(=O)[C@H](C)C[C@H](C)/C=C/C=C/C=C/1C` [rapamycin], in experiment [1], the “mRNA levels for ETC subunits” value was “decreased”. In addition, in experiment [2], the “SA-β-gal following exposure to NRTIs” value was “no increase”. In addition, the “survival of human fibroblasts following mitochondrial stress” value in experiment [3] (ethidium bromide for 7 days) is “increases the survival”. The “mitochondrial network following exposure to EthBr” value in experiment [3] (rapamycin treated cells) was “able to maintain their mitochondrial network”. Also, the mitochondrial network result in experiment [3] (rapamycin treated cells, no toxin) was “normal mitochondrial network”. Further, the “NRTI-induced decrease of lamin B1” value in experiment [4] (rapamycin (1 nM)) is “prevented this decrease”. Also, in experiment [4] (rapamycin treated cells (1 nM)), the “levels of IL-6 following exposure to NRTIs” value is “no increase”; the “levels of p53, p21 and p16 on NRTI exposure” value is “did not increase”.
